Data on six compounds can be found in US20150037394A1, “DRUG DELIVERY FORMULATIONS” (King's College London, priority 2011, published 2015).

For series [1] the following is noted: literature sources; sildenafil base value marked experimentally determined; cited from earlier work.
Series [2] can be described thus: Visually determined saturated solubility in various solvents. The format is physicochemical. The protocol:
The solubility experiments were performed by weighing 0.5±0.05 g of each excipient into glass vials (28 mL). The API (5.0±0.5 mg) was weighed by difference on a plastic weigh boat and transferred into the corresponding vial. […] Once saturation was achieved the mg/g API to solvent ratio was recorded.

For series [3] the following is noted: after 15 minutes exposure to an infrared bulb; cited from earlier work.
The conditions of series [4]: http://www.drugbank.ca/; cited from earlier work.

Counter-ions that a name gives are not always drawn.

On to `O=C(O)Cc1ccccc1Nc1c(Cl)cccc1Cl` [Diclofenac diethyl amine], for which the “mg/ml figure listed among physicochemical properties (solubility)” value in series [1] is 4.1 mg/mL.
For `CCCc1nn(C)c2c(=O)[nH]c(-c3cc(S(=O)(=O)N4CCN(C)CC4)ccc3OCC)nc12` [Sildenafil base], the “mg/ml figure listed among physicochemical properties (solubility)” value in series [1] is less than 0.83 mg/mL.
Regarding `O=C(O)Cc1ccccc1Nc1c(Cl)cccc1Cl` [Diclofenac free acid], the “Visually determined saturated solubility” value in series [2] (Solvent Arlasolve DMI) fell in the range of 57.90 to 110.45 mg/g; in series [2] (Solvent Diethyl Ether), 21.28 to 49.89 mg/g; in series [2] (Solvent EtOH), 31.60 to 62.79 mg/g; in series [2] (Solvent IPA), 29.97 to 58.09 mg/g; in series [2] (Solvent Isoamyl Alcohol) it was 34.25 to 53.55 mg/g; in series [2] (Solvent MeOH), 34.43 to 68.06 mg/g. The “Visually determined saturated solubility” value is 28.83 to 51.73 mg/g in series [2] (Solvent PEG-400), 10.15 to 20.50 mg/g in series [2] (Solvent PG), 34.32 to 81.12 mg/g in series [2] (Solvent Phenoxyethanol) and 108.73 to 162.17 mg/g in series [2] (Solvent Transcutol P).
Consider `CCCc1nn(C)c2c(=O)[nH]c(-c3cc(S(=O)(=O)N4CCN(C)CC4)ccc3OCC)nc12` [Sildenafil citrate], for which the “Visually determined saturated solubility” value in series [2] (Solvent Arlasolve DMI) was less than 0.88 mg/g; in series [2] (Solvent Diethyl Ether) it was less than 0.90 mg/g; in series [2] (Solvent EtOH), 0.54 to 1.06 mg/g; in series [2] (Solvent IPA), less than 1.27 mg/g; in series [2] (Solvent Isoamyl Alcohol) it was less than 0.45 mg/g; in series [2] (Solvent MeOH) it was 6.60 to 10.02 mg/g. Also, the “Visually determined saturated solubility” value in series [2] (Solvent PEG-400) is 3.85 to 6.32 mg/g; in series [2] (Solvent PG) it was 1.90 to 2.86 mg/g; in series [2] (Solvent Phenoxyethanol) it was 6.56 to 9.88 mg/g; in series [2] (Solvent Transcutol P) it was 2.14 to 2.85 mg/g.
In the case of `O=[N+]([O-])OCC(CO[N+](=O)[O-])O[N+](=O)[O-]` [nitroglycerin], the “Fold increase in permeation” value in series [3] is 2-3 fold.
In the case of `Nc1nc2c(ncn2COCCO)c(=O)[nH]1` [Acyclovir], the “Visually determined saturated solubility” value in series [2] (Solvent Arlasolve DMI) is less than 0.29 mg/g; in series [2] (Solvent Diethyl Ether) it was less than 0.54 mg/g; in series [2] (Solvent EtOH), less than 0.35 mg/g; in series [2] (Solvent IPA) it was less than 0.34 mg/g; in series [2] (Solvent Isoamyl Alcohol), less than 0.31 mg/g; in series [2] (Solvent MeOH), 0.29 to 0.62 mg/g. Also, the “Visually determined saturated solubility” value in series [2] (Solvent PEG-400) is 0.799 to 1.07 mg/g; in series [2] (Solvent PG) it was 1.66 to 2.39 mg/g; in series [2] (Solvent Phenoxyethanol), 0.54 to 1.08 mg/g; in series [2] (Solvent Transcutol P) it was less than 0.30 mg/g. In series [4], the log partition coefficient (Log P) is given as −1.56.

Usually Log P stands for a log measure of how a compound divides between an organic and an aqueous phase.
